Results: patent US12441768B2, “Compositions and methods for treating endometriosis” (EndoMet Biosciences, Inc., priority 2018, dated 2025)
pKd: −log10 of the molar value. Where a SMILES comes first, the peptide text is derived from it.

Molecular target: T1, β-catenin (Homo sapiens, UniProt P35222)
T1 sequence (P35222 1-781): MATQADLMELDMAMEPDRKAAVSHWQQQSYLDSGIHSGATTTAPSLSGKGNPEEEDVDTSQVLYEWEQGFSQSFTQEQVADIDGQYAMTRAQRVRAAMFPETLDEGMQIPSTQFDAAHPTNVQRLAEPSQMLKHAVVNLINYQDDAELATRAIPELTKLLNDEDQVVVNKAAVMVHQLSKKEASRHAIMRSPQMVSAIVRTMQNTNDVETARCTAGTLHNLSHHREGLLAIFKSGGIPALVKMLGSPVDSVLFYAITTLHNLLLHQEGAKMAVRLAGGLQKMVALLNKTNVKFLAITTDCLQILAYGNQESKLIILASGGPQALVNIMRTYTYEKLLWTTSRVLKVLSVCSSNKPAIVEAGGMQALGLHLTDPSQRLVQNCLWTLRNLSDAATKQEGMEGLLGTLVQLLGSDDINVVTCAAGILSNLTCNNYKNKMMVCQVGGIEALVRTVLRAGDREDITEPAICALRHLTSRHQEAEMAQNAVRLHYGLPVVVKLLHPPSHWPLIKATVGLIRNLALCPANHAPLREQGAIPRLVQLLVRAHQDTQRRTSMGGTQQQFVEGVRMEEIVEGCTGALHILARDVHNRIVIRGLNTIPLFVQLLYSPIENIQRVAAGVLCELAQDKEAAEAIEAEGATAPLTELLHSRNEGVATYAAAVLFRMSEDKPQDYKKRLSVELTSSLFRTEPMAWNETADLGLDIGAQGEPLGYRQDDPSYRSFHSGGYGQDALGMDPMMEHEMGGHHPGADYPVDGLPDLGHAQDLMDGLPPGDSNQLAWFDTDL
Assay: KD50 measurement using competitive fluorescence polarization (FP) with labelled TCF4
Type: binding
Settings: fluorescence polarization, β-catenin; for pKd: read-out: β-Cat FP KD
Summary of the method: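 5 nM labelled TCF4 was combined with 100 nM β-catenin at room temperature, then inhibitor was titrated in serial dilutions from 10 nM to 30 uM. Polarization was read at excitation 470 nm, emission 520 nm; displacement lowers the signal. Three independent experiments.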

β-Cat FP Hill slope | pKd | Compound
0.7 | > 6.40 | CC[C@H](C)[C@@H]1NC(=O)[C@@H](NC(=O)[C@H](CCC(N)=O)NC(=O)[C@H](C)N(C)C(=O)[C@H](Cc2c[nH]c3ccccc23)NC(=O)CCNC(C)=O)CCCCNC(=O)CC[C@@H](C(=O)N[C@@H](Cc2c[nH]cn2)C(=O)N[C@H](C(=O)N[C@@H](CCC(N)=O)C(=O)N[C@@H](CCCNC(=N)N)C(=O)N[C@H](C(=O)N[C@@H](Cc2c[nH]c3ccccc23)C(=O)NCC(N)=O)C(C)C)C2CCCCC2)NC(=O)[C@H](CC(=O)O)NC(=O)[C@H](CC(C)C)NC1=O [compound 419] (HELM PEPTIDE1{[ac].[bAla].W.[meA].Q.K.I.L.D.E.H.[O=C([C@@H](N[*:1])C1CCCCC1)[*:2]].Q.R.V.W.G.[am]}$PEPTIDE1,PEPTIDE1,6:R3-10:R3$$$V2.0)
 | 6.00 to 6.40 | CCCCCCCCC(=O)N[C@@H](Cc1c[nH]c2ccccc12)C(=O)N(C)[C@@H](C)C(=O)N[C@@H](CCC(N)=O)C(=O)N[C@H]1CCCCNC(=O)CC[C@@H](C(=O)N[C@@H](Cc2c[nH]cn2)C(=O)N[C@H](C(=O)N[C@@H](CCC(N)=O)C(=O)N[C@@H](CCCNC(=N)N)C(=O)N[C@H](C(=O)N[C@@H](Cc2c[nH]c3ccccc23)C(=O)NCC(N)=O)C(C)C)C(C)C)NC(=O)[C@H](CC(=O)O)NC(=O)[C@H](CC(C)C)NC(=O)[C@H](C2CCCCC2)NC1=O [compound 422] (HELM PEPTIDE1{[CCCCCCCCC(=O)[*:2]].W.[meA].Q.K.[O=C([C@@H](N[*:1])C1CCCCC1)[*:2]].L.D.E.H.V.Q.R.V.W.G.[am]}$PEPTIDE1,PEPTIDE1,5:R3-9:R3$$$V2.0)
0.7 | > 6.40 | CC[C@H](C)[C@@H]1NC(=O)[C@@H](NC(=O)[C@H](CCC(N)=O)NC(=O)[C@H](C)N(C)C(=O)[C@H](Cc2c[nH]c3ccccc23)NC(C)=O)CCCNC(=O)CC[C@@H](C(=O)N[C@@H](Cc2c[nH]cn2)C(=O)N[C@H](C(=O)N[C@@H](CCC(N)=O)C(=O)N[C@@H](CCCNC(=N)N)C(=O)N[C@H](C(=O)N[C@@H](Cc2c[nH]c3ccccc23)C(=O)NCC(N)=O)C(C)C)C2CCCCC2)NC(=O)[C@H](CC(=O)O)NC(=O)[C@H](CC(C)C)NC1=O [compound 424] (HELM PEPTIDE1{[ac].W.[meA].Q.[Orn].I.L.D.E.H.[O=C([C@@H](N[*:1])C1CCCCC1)[*:2]].Q.R.V.W.G.[am]}$PEPTIDE1,PEPTIDE1,5:R3-9:R3$$$V2.0)
 | > 6.40 | CCCCCCCCC(=O)N[C@@H](Cc1c[nH]c2ccccc12)C(=O)N(C)[C@@H](C)C(=O)N[C@@H](CCC(N)=O)C(=O)N[C@H]1CCC(=O)NCCCC[C@@H](C(=O)N[C@@H](Cc2c[nH]cn2)C(=O)N[C@H](C(=O)N[C@@H](CCC(N)=O)C(=O)N[C@@H](CCCNC(=N)N)C(=O)N[C@H](C(=O)N[C@@H](Cc2c[nH]c3ccccc23)C(=O)NCC(N)=O)C(C)C)C2CCCCC2)NC(=O)[C@H](CC(=O)O)NC(=O)[C@H](CC(C)C)NC(=O)[C@H]([C@@H](C)CC)NC1=O [compound 427] (HELM PEPTIDE1{[CCCCCCCCC(=O)[*:2]].W.[meA].Q.E.I.L.D.K.H.[O=C([C@@H](N[*:1])C1CCCCC1)[*:2]].Q.R.V.W.G.[am]}$PEPTIDE1,PEPTIDE1,5:R3-9:R3$$$V2.0)

Continued, compound first:

Compound | β-Cat FP Hill slope | pKd
CC[C@H](C)[C@@H]1NC(=O)[C@@H](NC(=O)C(C)(C)NC(=O)[C@H](C)N(C)C(=O)[C@@H](N)Cc2c[nH]c3ccccc23)CCCCNC(=O)CC[C@@H](C(=O)N[C@@H](Cc2c[nH]cn2)C(=O)N[C@H](C(=O)N[C@@H](CCC(N)=O)C(=O)N[C@@H](CCCNC(=N)N)C(=O)N[C@H](C(=O)N[C@@H](Cc2c[nH]c3ccccc23)C(=O)NCC(N)=O)C(C)C)C2CCCCC2)NC(=O)[C@H](CC(=O)O)NC(=O)[C@H](CC(C)C)NC1=O [compound 417] (HELM PEPTIDE1{W.[meA].[Aib].K.I.L.D.E.H.[O=C([C@@H](N[*:1])C1CCCCC1)[*:2]].Q.R.V.W.G.[am]}$PEPTIDE1,PEPTIDE1,4:R3-8:R3$$$V2.0) | 0.93 | > 6.40
CC[C@H](C)[C@@H]1NC(=O)[C@@H](NC(=O)C(C)(C)NC(=O)[C@H](C)N(C)C(=O)[C@H](Cc2c[nH]c3ccccc23)NC(C)=O)CCCCNC(=O)CC[C@@H](C(=O)N[C@@H](Cc2c[nH]cn2)C(=O)N[C@H](C(=O)N[C@@H](CCC(N)=O)C(=O)N[C@@H](CCCNC(=N)N)C(=O)N[C@H](C(=O)N[C@@H](Cc2c[nH]c3ccccc23)C(=O)NCC(N)=O)C(C)C)C2CCCCC2)NC(=O)[C@H](CC(=O)O)NC(=O)[C@H](CC(C)C)NC1=O [compound 418] (HELM PEPTIDE1{[ac].W.[meA].[Aib].K.I.L.D.E.H.[O=C([C@@H](N[*:1])C1CCCCC1)[*:2]].Q.R.V.W.G.[am]}$PEPTIDE1,PEPTIDE1,5:R3-9:R3$$$V2.0) | 1.03 | < 4.52
CC(C)C[C@@H]1NC(=O)[C@H](C2CCCCC2)NC(=O)[C@@H](NC(=O)[C@H](CCC(N)=O)NC(=O)[C@H](C)N(C)C(=O)[C@@H](N)Cc2c[nH]c3ccccc23)CCCCNC(=O)CC[C@@H](C(=O)N[C@@H](Cc2c[nH]cn2)C(=O)N[C@H](C(=O)N[C@@H](CCC(N)=O)C(=O)N[C@@H](CCCNC(=N)N)C(=O)N[C@H](C(=O)N[C@@H](Cc2c[nH]c3ccccc23)C(=O)NCC(N)=O)C(C)C)C(C)C)NC(=O)[C@H](CC(=O)O)NC1=O [compound 420] (HELM PEPTIDE1{W.[meA].Q.K.[O=C([C@@H](N[*:1])C1CCCCC1)[*:2]].L.D.E.H.V.Q.R.V.W.G.[am]}$PEPTIDE1,PEPTIDE1,4:R3-8:R3$$$V2.0) | 0.7 | 6.00 to 6.40
CC(=O)N[C@@H](Cc1c[nH]c2ccccc12)C(=O)N(C)[C@@H](C)C(=O)N[C@@H](CCC(N)=O)C(=O)N[C@H]1CCCCNC(=O)CC[C@@H](C(=O)N[C@@H](Cc2c[nH]cn2)C(=O)N[C@H](C(=O)N[C@@H](CCC(N)=O)C(=O)N[C@@H](CCCNC(=N)N)C(=O)N[C@H](C(=O)N[C@@H](Cc2c[nH]c3ccccc23)C(=O)NCC(N)=O)C(C)C)C(C)C)NC(=O)[C@H](CC(=O)O)NC(=O)[C@H](CC(C)C)NC(=O)[C@H](C2CCCCC2)NC1=O [compound 421] (HELM PEPTIDE1{[ac].W.[meA].Q.K.[O=C([C@@H](N[*:1])C1CCCCC1)[*:2]].L.D.E.H.V.Q.R.V.W.G.[am]}$PEPTIDE1,PEPTIDE1,5:R3-9:R3$$$V2.0) | 0.7 | > 6.40
CC[C@H](C)[C@@H]1NC(=O)[C@@H](NC(=O)[C@H](CCC(N)=O)NC(=O)[C@H](C)N(C)C(=O)[C@@H](N)Cc2c[nH]c3ccccc23)CCCNC(=O)CC[C@@H](C(=O)N[C@@H](Cc2c[nH]cn2)C(=O)N[C@H](C(=O)N[C@@H](CCC(N)=O)C(=O)N[C@@H](CCCNC(=N)N)C(=O)N[C@H](C(=O)N[C@@H](Cc2c[nH]c3ccccc23)C(=O)NCC(N)=O)C(C)C)C2CCCCC2)NC(=O)[C@H](CC(=O)O)NC(=O)[C@H](CC(C)C)NC1=O [compound 423] (HELM PEPTIDE1{W.[meA].Q.[Orn].I.L.D.E.H.[O=C([C@@H](N[*:1])C1CCCCC1)[*:2]].Q.R.V.W.G.[am]}$PEPTIDE1,PEPTIDE1,4:R3-8:R3$$$V2.0) | 0.7 | 6.00 to 6.40
CCCCCCCCC(=O)N[C@@H](Cc1c[nH]c2ccccc12)C(=O)N(C)[C@@H](C)C(=O)N[C@@H](CCC(N)=O)C(=O)N[C@H]1CCCNC(=O)CC[C@@H](C(=O)N[C@@H](Cc2c[nH]cn2)C(=O)N[C@H](C(=O)N[C@@H](CCC(N)=O)C(=O)N[C@@H](CCCNC(=N)N)C(=O)N[C@H](C(=O)N[C@@H](Cc2c[nH]c3ccccc23)C(=O)NCC(N)=O)C(C)C)C2CCCCC2)NC(=O)[C@H](CC(=O)O)NC(=O)[C@H](CC(C)C)NC(=O)[C@H]([C@@H](C)CC)NC1=O [compound 425] (HELM PEPTIDE1{[CCCCCCCCC(=O)[*:2]].W.[meA].Q.[Orn].I.L.D.E.H.[O=C([C@@H](N[*:1])C1CCCCC1)[*:2]].Q.R.V.W.G.[am]}$PEPTIDE1,PEPTIDE1,5:R3-9:R3$$$V2.0) |  | > 6.40
CC[C@H](C)[C@@H]1NC(=O)[C@@H](NC(=O)[C@H](CCC(N)=O)NC(=O)[C@H](C)N(C)C(=O)[C@H](Cc2c[nH]c3ccccc23)NC(C)=O)CCC(=O)NCCCC[C@@H](C(=O)N[C@@H](Cc2c[nH]cn2)C(=O)N[C@H](C(=O)N[C@@H](CCC(N)=O)C(=O)N[C@@H](CCCNC(=N)N)C(=O)N[C@H](C(=O)N[C@@H](Cc2c[nH]c3ccccc23)C(=O)NCC(N)=O)C(C)C)C2CCCCC2)NC(=O)[C@H](CC(=O)O)NC(=O)[C@H](CC(C)C)NC1=O [compound 426] (HELM PEPTIDE1{[ac].W.[meA].Q.E.I.L.D.K.H.[O=C([C@@H](N[*:1])C1CCCCC1)[*:2]].Q.R.V.W.G.[am]}$PEPTIDE1,PEPTIDE1,5:R3-9:R3$$$V2.0) | 0.91 | > 6.40
